Laboratory results as given in patent US20090104145A1, “Mixtures of Anthranilamide Invertebrate Pest Control Agents” (priority 2004, published 2009).

Key:
Test in all cases: whole plant or invertebrate
Format in all cases: in vivo
[1] = tested on: cotton melon aphid (Aphis gossypii Glover); details: rate 2 ppm
Description: (§1) The pest control protection afforded by the mixtures or compositions is not limited, however, to these species. The analysis of synergism or antagonism between the mixtures or compositions was determined using Colby's equation. The average % mortality data for the test compounds alone were inserted into the Colby's equation. If the observed average % mortality was higher than “p”, the expected % mortality, the mixture or composition had synergistic effects. If the observed average % mortality was equal to or lower than the expected mortality, the mixture or composition either had no synergistic effect or an antagonistic effect. In these tests, Compound 1 is the compound of Formula 1.
(§2) Test compounds were formulated using a solution containing 10% acetone, 90% water and 300 ppm X-77® Spreader Lo-Foam Formula non-ionic surfactant containing alkylarylpolyoxyethylene, free fatty acids, glycols and isopropanol (Loveland Industries, Inc.) to provide the desired concentration in ppm. Formulated test solutions were then applied in 1 mL volumes through a SUJ2 atomizer nozzle with ⅛ JJ custom body (Spraying Systems Co.) positioned 1.27 cm (0.5 inches) above the top of each test unit.
For evaluating control of cotton melon aphid (Aphis gossypii Glover) through contact and/or systemic means, each test unit consisted of a small open container with a 6- to 7-day-old cotton plant inside. This was pre-infested by placing on a leaf of the test plant 30 to 40 aphids on a piece of leaf excised from a culture plant (cut-leaf method). The larvae moved onto the test plant as the leaf piece desiccated. After pre-infestation, the soil of the test unit was covered with a layer of sand.
Test compounds were formulated and sprayed as described for Test A. The applications were replicated three times. After spraying of the formulated test compounds, each test unit was allowed to dry for 1 hour and then a black, screened cap was placed on top. The test units were held for 6 days in a growth chamber at 19-21° C. and 50-70% relative humidity.

[2] = tested on: silverleaf whitefly (Bemisia argentifolii Bellows and Perring); details: Table 2B; rate 10 ppm, compound alone
Description: as §1
For evaluating control of silverleaf whitefly (Bemisia argentifolii Bellows and Perring) through contact and/or systemic means, each test unit consisted of a small open container with a 12- to 14-day-old cotton plant inside. This was pre-infested by placing test units into cages infested with adult whiteflies so that oviposition on the cotton leaves could occur. The adults were removed from the plants with an air-blast nozzle, and the test units were capped. The test units were then stored 2 to 3 days before spraying.
as §2
The results for all experimental compositions in this test were replicated three times. After spraying of the formulated test composition, each test unit was allowed to dry for 1 hour and the cap removed. The test units were held for 13 days in a growth chamber at 28° C. and 50-70% relative humidity.

[3] = tested on: corn planthopper (Pereginus maidis); details: rate 0.4 ppm
Description: as §1, §2
For evaluating control of corn planthopper (Pereginus maidis) through contact and/or systemic means, each test unit consisted of a small open cylindrical container with a 3- to 4-day-old corn (maize) plant (spike) inside. White sand was added to the top of the soil prior to application. Test compounds were formulated and sprayed with 3 replications as described for Test A. After spraying, the test units were allowed to dry for 1 hour before they were post-infested with 10 to 20 corn planthoppers (18- to 20-day-old nymphs) by sprinkling them onto the sand with a salt shaker. A black, screened cap was placed on the top of each container. The test units were held for 6 days in a growth chamber at 19-21° C. and 50-70% relative humidity.

For dinotefuran, the “% mortality (obs)” value [1] was 64%, the “% mortality (obs)” value [2] was 74% and the “% mortality (obs)” value [3] was 86%.
